In patent US20220324815A1, “2-PHENOXY-PYRIMIDINE DERIVATIVES AS HERBICIDAL COMPOUNDS” (SYNGENTA CROP PROTECTION AG, priority 2019, published 2022):

Experiments:
Type in all cases: in vivo
Settings in all cases: 250 g/ha unless otherwise stated, evaluated after 13 days, five-point scale
[1] = tested on: Ipomoea hederacea (IPOHE); test: Test 1 glasshouse herbicide test, post-emergence application (Table B1)
Protocol: (§1) Seeds of a variety of test species are sown in standard soil in pots (Lolium perenne (LOLPE), Solanum nigrum (SOLNI), Amaranthus retoflexus (AMARE), Setaria faberi (SETFA), Echinochloa crus-galli (ECHCG) and Ipomoea hederacea (IPOHE)). After cultivation for one day (pre-emergence) or after 8 days cultivation (post-emergence) under controlled conditions in a glasshouse (at 24/16° C., day/night; 14 hours light; 65% humidity), the plants are sprayed with an aqueous spray solution derived from the formulation of the technical active ingredient in acetone/water (50:50) solution containing 0.5% Tween 20 (polyoxyethelyene sorbitan monolaurate, CAS RN 9005-64-5). Compounds are applied at 250 g/ha unless otherwise stated. The test plants are then grown in a glasshouse under controlled conditions in a glasshouse (at 24/16° C., day/night; 14 hours light; 65% humidity) and watered twice daily. After 13 days for pre and post-emergence, the test is evaluated for the percentage damage caused to the plant. The biological activities (% phytotoxicity) are shown in Tables B1 and B2 below using a five-point scale (5=81 to 100%; 4=61 to 80%; 3=41 to 60%; 2=21 to 40%; 1=0 to 20%).

Setaria faberi (SETFA) [2] = test: as above
Protocol: as §1

[3] = tested on: Echinochloa crus-galli (ECHCG); test: as above
Protocol: as §1

[4] = tested on: Amaranthus retoflexus (AMARE); test: as above
Protocol: as §1

[5] = tested on: Ipomoea hederacea (IPOHE); test: Test 1 glasshouse herbicide test, pre-emergence application (Table B2)
Protocol: as §1

Setaria faberi (SETFA) [6] = test: as above
Protocol: as §1

[7] = tested on: Echinochloa crus-galli (ECHCG); test: as above
Protocol: as §1

[8] = tested on: Amaranthus retoflexus (AMARE); test: as above
Protocol: as §1

SMILES	% phytotoxicity IPOHE, post-emergence application [1]	% phytotoxicity SETFA, post-emergence application (Setaria faberi (SETFA) [2])	% phytotoxicity ECHCG, post-emergence application [3]	% phytotoxicity AMARE, post-emergence application [4]	% phytotoxicity IPOHE, pre-emergence application [5]	% phytotoxicity SETFA, pre-emergence application (Setaria faberi (SETFA) [6])	% phytotoxicity ECHCG, pre-emergence application [7]	% phytotoxicity AMARE, pre-emergence application [8]
Cl/C=C/CSc1ccccc1Oc1ncc(Cl)cn1 [Compound A37]	2 (2=21 to 40%)	2 (2=21 to 40%)	2 (2=21 to 40%)	4 (4=61 to 80%)	1 (1=0 to 20%)	3 (3=41 to 60%)	4 (4=61 to 80%)	4 (4=61 to 80%)
N#Cc1cccc(Oc2ncc(Cl)cn2)c1SCCOCC(F)(F)F [Compound A107]	2 (2=21 to 40%)	4 (4=61 to 80%)	5 (5=81 to 100%)	5 (5=81 to 100%)	3 (3=41 to 60%)	5 (5=81 to 100%)	5 (5=81 to 100%)	5 (5=81 to 100%)
N#Cc1cccc(Oc2ncc(Br)cn2)c1S(=O)(=O)CCCC(F)(F)F [Compound A118]	4 (4=61 to 80%)	4 (4=61 to 80%)	4 (4=61 to 80%)	5 (5=81 to 100%)	5 (5=81 to 100%)	5 (5=81 to 100%)	5 (5=81 to 100%)	5 (5=81 to 100%)
Cc1cnc(Oc2cccc(C#N)c2S(=O)(=O)CCCC(F)(F)F)nc1 [Compound A115]	4 (4=61 to 80%)	3 (3=41 to 60%)	4 (4=61 to 80%)	4 (4=61 to 80%)	5 (5=81 to 100%)	3 (3=41 to 60%)	4 (4=61 to 80%)	5 (5=81 to 100%)
N#Cc1cccc(Oc2ncc(Cl)cn2)c1[S+]([O-])CCCC(F)F (stereo not shown) [Compound A101]	4 (4=61 to 80%)	4 (4=61 to 80%)	4 (4=61 to 80%)	5 (5=81 to 100%)	5 (5=81 to 100%)	5 (5=81 to 100%)	5 (5=81 to 100%)	5 (5=81 to 100%)
O=S(=O)(CC1CC1)c1ccccc1Oc1ncc(Cl)cn1 [Compound A51]	1 (1=0 to 20%)	1 (1=0 to 20%)	1 (1=0 to 20%)	3 (3=41 to 60%)	1 (1=0 to 20%)	2 (2=21 to 40%)	1 (1=0 to 20%)	4 (4=61 to 80%)
CC(C)=CCSc1ccccc1Oc1ncc(Cl)cn1 [Compound A52]	1 (1=0 to 20%)	3 (3=41 to 60%)	4 (4=61 to 80%)	3 (3=41 to 60%)	1 (1=0 to 20%)	1 (1=0 to 20%)	2 (2=21 to 40%)	1 (1=0 to 20%)
O=S(=O)(Cc1cccc(Cl)c1)c1ccccc1Oc1ncc(Cl)cn1 [Compound A89]	1 (1=0 to 20%)	1 (1=0 to 20%)	1 (1=0 to 20%)	3 (3=41 to 60%)	1 (1=0 to 20%)	1 (1=0 to 20%)	1 (1=0 to 20%)	1 (1=0 to 20%)
FC(F)CCCSc1c(Cl)cccc1Oc1ncc(Cl)cn1 [Compound A105, 5-chloro-2-[3-chloro-2-(4,4-difluorobutylsulfanyl)phenoxy]pyrimidine]	4 (4=61 to 80%)	5 (5=81 to 100%)	5 (5=81 to 100%)	5 (5=81 to 100%)	4 (4=61 to 80%)	5 (5=81 to 100%)	5 (5=81 to 100%)	5 (5=81 to 100%)
CCCCSc1ccccc1Oc1ncc(Cl)cn1 [Compound A21]	3 (3=41 to 60%)	4 (4=61 to 80%)	4 (4=61 to 80%)	4 (4=61 to 80%)	2 (2=21 to 40%)	5 (5=81 to 100%)	5 (5=81 to 100%)	4 (4=61 to 80%)
Cc1cnc(Oc2cccc(C#N)c2SCCCC(F)(F)F)nc1 [Compound A114]	4 (4=61 to 80%)	3 (3=41 to 60%)	4 (4=61 to 80%)	3 (3=41 to 60%)	4 (4=61 to 80%)	4 (4=61 to 80%)	4 (4=61 to 80%)	5 (5=81 to 100%)
O=S(=O)(CCC(F)=C(F)F)c1ccccc1Oc1ncc(Cl)cn1 [Compound A73]	1 (1=0 to 20%)	3 (3=41 to 60%)	3 (3=41 to 60%)	4 (4=61 to 80%)	1 (1=0 to 20%)	4 (4=61 to 80%)	5 (5=81 to 100%)	5 (5=81 to 100%)
Clc1cnc(Oc2ccccc2SCCn2cc(Cl)cn2)nc1 [Compound A57]	2 (2=21 to 40%)	4 (4=61 to 80%)	4 (4=61 to 80%)	5 (5=81 to 100%)	1 (1=0 to 20%)	4 (4=61 to 80%)	3 (3=41 to 60%)	4 (4=61 to 80%)
CCCC(C)Sc1ccccc1Oc1ncc(Cl)cn1 (stereo not shown) [Compound A33]	1 (1=0 to 20%)	2 (2=21 to 40%)	2 (2=21 to 40%)	3 (3=41 to 60%)	1 (1=0 to 20%)	3 (3=41 to 60%)	1 (1=0 to 20%)	1 (1=0 to 20%)
